# Tests used:
# Experiment in all cases: radiometric filter-binding kinase assay, Kinase HotSpot
# Settings in all cases: compound 0.5 µM; ATP 10 µM
# [1] = molecular target: SRPK3 (human) (UniProt Q9UPE1)
# [2] = molecular target: GRK7 (human) (UniProt Q8WTQ7)
# [3] = molecular target: ACVRL1 (human) (UniProt P37023)
# [4] = molecular target: MAP3K9 (human) (UniProt P80192)
# [5] = molecular target: CLK2 (human) (UniProt P49760)
# [6] = molecular target: STK11 (human) (UniProt Q15831)
# [7] = molecular target: RPS6KB1 (human) (UniProt P23443)
# [8] = molecular target: MAPKAPK5 (human) (UniProt Q8IW41)
# [9] = molecular target: CDK6 CCND3 (human) (UniProt P30281+Q00534)
# [10] = molecular target: ULK2 (human) (UniProt Q8IYT8)
# [11] = molecular target: CDK1 CCNB1 (human) (UniProt P06493+P14635)
# [12] = molecular target: GRK4 (human) (UniProt P32298)
# [13] = molecular target: LRRK2 (human) (UniProt Q5S007)
# [14] = molecular target: BLK (human) (UniProt P51451)
# [15] = molecular target: FER (human) (UniProt P16591)
# [16] = molecular target: TAOK2 (human) (UniProt Q9UL54)
# [17] = molecular target: CAMK1G (human) (UniProt Q96NX5)
# [18] = molecular target: CAMK4 (human) (UniProt Q16566)
# [19] = molecular target: TEK (human) (UniProt Q02763)
# [20] = molecular target: PRKD1 (human) (UniProt Q15139)
# [21] = molecular target: NEK7 (human) (UniProt Q8TDX7)
# [22] = molecular target: MST4 (human) (UniProt Q9P289)
# [23] = molecular target: HIPK2 (human) (UniProt Q9H2X6)
# [24] = molecular target: FGFR2 (human) (UniProt P21802)
# [25] = molecular target: ABL2 (human) (UniProt P42684)
# [26] = molecular target: TAOK3 (human) (UniProt Q9H2K8)
# [27] = molecular target: PAK1 (human) (UniProt Q13153)
# [28] = molecular target: NEK2 (human) (UniProt P51955)
# [29] = molecular target: FRK (human) (UniProt P42685)
# [30] = molecular target: AKT3 (human) (UniProt Q9Y243)
# [31] = molecular target: MAP3K14 (human) (UniProt Q99558)
# [32] = molecular target: RPS6KB2 (human) (UniProt Q9UBS0)
# [33] = molecular target: PDGFRB (human) (UniProt P09619)
# [34] = molecular target: CDC42BPB (human) (UniProt Q9Y5S2)
# [35] = molecular target: MAP2K1 (human) (UniProt Q02750)
# [36] = molecular target: CAMKK1 (human) (UniProt Q8N5S9)
# [37] = molecular target: STK3 (human) (UniProt Q13188)
# [38] = molecular target: HIPK4 (human) (UniProt Q8NE63)
# [39] = molecular target: LCK (human) (UniProt P06239)
# [40] = molecular target: IKBKB (human) (UniProt O14920)
# [41] = molecular target: STK16 (human) (UniProt O75716)
# [42] = molecular target: TYRO3 (human) (UniProt Q06418)
# Sequence of RPS6KB1 (human) (P23443 whole entry, looked up): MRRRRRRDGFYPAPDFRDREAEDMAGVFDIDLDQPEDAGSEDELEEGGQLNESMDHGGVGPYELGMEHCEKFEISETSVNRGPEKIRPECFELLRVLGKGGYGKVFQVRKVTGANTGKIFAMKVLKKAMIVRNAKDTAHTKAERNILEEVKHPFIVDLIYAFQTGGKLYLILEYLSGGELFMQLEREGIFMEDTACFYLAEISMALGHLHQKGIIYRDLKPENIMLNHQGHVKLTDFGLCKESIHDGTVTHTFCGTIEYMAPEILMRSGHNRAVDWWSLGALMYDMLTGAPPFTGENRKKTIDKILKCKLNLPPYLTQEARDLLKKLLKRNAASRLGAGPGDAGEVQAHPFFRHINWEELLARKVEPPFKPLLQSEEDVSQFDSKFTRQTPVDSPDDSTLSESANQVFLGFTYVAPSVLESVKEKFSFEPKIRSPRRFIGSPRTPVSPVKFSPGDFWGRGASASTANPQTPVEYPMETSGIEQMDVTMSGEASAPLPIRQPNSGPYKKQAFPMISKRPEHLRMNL
# Sequence of TEK (human) (Q02763 whole entry, looked up): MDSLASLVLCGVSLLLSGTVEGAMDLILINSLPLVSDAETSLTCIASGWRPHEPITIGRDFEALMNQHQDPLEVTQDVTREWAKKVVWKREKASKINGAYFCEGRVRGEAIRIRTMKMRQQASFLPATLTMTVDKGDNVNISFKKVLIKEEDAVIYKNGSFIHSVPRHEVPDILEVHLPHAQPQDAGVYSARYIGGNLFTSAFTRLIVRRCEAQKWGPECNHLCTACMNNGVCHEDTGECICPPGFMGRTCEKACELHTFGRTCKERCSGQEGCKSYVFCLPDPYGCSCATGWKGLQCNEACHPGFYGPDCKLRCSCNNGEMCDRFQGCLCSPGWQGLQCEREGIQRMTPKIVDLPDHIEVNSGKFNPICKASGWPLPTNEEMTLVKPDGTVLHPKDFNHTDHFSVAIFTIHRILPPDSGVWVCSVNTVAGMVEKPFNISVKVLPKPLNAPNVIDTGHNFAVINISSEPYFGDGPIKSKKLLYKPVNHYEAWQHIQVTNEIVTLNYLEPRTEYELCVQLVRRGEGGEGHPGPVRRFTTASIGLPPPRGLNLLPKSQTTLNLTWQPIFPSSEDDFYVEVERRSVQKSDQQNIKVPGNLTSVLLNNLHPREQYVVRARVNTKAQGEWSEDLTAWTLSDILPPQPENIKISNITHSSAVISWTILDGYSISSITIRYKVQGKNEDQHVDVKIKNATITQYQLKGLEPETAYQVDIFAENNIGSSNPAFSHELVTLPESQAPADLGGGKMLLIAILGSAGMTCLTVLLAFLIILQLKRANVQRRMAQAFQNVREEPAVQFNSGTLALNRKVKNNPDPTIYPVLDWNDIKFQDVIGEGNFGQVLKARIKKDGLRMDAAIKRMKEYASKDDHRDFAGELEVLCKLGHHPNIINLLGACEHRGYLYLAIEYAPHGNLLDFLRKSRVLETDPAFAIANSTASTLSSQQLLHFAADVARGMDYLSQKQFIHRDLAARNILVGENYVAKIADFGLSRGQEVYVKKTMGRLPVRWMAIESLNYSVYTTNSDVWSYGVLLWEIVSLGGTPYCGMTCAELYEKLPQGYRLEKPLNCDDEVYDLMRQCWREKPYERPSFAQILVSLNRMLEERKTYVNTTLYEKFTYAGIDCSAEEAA
# Sequence of RPS6KB2 (human) (Q9UBS0 whole entry, looked up): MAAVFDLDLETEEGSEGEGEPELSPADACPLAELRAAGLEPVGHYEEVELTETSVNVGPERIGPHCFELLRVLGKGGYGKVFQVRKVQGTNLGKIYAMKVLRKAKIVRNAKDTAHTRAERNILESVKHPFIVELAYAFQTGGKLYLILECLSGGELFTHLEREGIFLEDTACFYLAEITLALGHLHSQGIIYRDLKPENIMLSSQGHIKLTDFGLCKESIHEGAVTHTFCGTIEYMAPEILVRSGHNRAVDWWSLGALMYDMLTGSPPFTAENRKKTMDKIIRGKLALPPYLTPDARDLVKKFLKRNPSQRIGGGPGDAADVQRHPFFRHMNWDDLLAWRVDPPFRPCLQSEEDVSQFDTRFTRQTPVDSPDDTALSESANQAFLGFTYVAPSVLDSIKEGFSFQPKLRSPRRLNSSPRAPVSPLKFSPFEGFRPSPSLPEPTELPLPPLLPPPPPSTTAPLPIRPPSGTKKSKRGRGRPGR
# Sequence of HIPK4 (human) (Q8NE63 whole entry, looked up): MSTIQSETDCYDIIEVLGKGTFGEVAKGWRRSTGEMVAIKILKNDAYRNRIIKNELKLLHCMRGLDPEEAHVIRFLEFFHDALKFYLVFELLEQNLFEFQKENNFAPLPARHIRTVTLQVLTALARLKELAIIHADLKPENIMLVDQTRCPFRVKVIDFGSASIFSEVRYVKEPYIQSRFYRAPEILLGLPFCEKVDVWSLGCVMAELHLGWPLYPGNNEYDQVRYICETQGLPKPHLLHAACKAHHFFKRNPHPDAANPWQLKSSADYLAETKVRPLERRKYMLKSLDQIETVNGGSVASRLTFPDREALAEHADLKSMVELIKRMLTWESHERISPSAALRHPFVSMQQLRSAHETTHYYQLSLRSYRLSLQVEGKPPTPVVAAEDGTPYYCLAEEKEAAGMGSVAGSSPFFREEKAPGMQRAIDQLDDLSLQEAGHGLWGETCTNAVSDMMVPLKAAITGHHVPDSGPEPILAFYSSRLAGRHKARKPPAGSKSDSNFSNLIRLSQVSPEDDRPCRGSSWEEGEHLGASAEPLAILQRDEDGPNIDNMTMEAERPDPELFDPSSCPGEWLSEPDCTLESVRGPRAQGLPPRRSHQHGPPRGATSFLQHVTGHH
# Sequence of CLK2 (human) (P49760 whole entry, looked up): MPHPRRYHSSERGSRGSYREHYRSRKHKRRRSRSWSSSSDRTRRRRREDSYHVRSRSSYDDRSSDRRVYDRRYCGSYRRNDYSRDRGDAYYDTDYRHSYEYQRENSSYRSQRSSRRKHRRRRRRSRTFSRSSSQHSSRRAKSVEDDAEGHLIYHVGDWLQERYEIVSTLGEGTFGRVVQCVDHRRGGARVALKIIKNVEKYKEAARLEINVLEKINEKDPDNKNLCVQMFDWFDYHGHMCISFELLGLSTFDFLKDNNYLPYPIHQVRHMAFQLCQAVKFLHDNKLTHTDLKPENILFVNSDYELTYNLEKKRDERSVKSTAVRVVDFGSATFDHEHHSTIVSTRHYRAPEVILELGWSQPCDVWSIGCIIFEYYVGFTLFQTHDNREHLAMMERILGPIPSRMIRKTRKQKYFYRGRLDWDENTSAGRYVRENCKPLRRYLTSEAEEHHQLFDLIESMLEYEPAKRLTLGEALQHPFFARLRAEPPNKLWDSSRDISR
# Sequence of CDC42BPB (human) (Q9Y5S2 whole entry, looked up): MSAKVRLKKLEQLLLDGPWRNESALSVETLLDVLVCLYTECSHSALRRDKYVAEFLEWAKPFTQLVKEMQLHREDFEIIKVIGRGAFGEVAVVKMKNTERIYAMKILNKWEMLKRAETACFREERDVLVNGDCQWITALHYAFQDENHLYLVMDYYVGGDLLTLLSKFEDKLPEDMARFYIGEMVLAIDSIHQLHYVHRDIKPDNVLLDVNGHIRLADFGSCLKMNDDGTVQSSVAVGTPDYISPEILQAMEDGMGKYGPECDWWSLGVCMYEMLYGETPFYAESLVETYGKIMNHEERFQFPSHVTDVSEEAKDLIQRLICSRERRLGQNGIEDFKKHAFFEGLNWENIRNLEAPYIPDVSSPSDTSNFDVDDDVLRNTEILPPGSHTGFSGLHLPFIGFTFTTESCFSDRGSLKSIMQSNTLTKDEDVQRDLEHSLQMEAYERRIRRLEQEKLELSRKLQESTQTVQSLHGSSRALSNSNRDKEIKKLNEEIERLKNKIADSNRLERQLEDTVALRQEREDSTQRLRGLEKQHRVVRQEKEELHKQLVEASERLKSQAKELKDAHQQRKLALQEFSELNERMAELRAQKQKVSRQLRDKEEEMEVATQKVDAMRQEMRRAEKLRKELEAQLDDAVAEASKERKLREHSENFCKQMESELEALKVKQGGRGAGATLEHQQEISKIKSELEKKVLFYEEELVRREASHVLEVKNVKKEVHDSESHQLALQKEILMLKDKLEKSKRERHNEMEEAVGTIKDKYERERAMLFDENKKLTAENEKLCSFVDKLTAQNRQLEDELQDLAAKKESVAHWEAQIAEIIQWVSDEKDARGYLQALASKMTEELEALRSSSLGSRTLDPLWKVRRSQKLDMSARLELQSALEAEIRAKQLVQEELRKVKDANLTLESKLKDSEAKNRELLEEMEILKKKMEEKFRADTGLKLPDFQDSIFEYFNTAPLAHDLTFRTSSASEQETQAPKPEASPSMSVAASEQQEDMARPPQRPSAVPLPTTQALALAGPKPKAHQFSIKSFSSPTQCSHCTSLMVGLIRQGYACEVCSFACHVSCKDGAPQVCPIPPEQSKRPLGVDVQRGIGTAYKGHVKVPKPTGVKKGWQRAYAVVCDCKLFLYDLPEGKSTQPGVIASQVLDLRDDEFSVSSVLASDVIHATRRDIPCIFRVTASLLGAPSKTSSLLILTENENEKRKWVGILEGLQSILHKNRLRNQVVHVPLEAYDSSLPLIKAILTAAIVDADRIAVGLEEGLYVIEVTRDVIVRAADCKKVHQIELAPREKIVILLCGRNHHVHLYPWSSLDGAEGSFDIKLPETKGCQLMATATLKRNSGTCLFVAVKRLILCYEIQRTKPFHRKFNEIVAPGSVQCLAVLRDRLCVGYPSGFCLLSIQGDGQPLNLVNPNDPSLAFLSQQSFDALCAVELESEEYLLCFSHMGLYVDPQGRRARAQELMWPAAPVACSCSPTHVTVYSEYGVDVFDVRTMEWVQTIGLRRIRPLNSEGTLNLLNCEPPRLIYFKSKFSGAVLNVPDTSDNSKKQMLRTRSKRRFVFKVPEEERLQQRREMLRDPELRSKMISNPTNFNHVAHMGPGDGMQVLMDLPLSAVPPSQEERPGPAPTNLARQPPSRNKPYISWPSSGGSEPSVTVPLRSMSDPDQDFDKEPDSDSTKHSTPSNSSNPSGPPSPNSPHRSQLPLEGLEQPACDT
compound,measurement,setting,value
CCCCc1c(-c2ccc(OC)cc2)[nH]c2nccnc12,residual activity,[1],97.9%
same,residual activity,[2],94.1%
same,residual activity,[3],77%
same,residual activity,[4],39.8%
same,residual activity,[5],85.3%
same,residual activity,[6],74.5%
same,residual activity,[7],108%
same,residual activity,[8],95.3%
same,residual activity,[9],79.7%
same,residual activity,[10],108%
same,residual activity,[11],47.7%
same,residual activity,[12],96.7%
same,residual activity,[13],83%
same,residual activity,[14],96.7%
same,residual activity,[15],59.8%
same,residual activity,[16],90.1%
same,residual activity,[17],102%
same,residual activity,[18],97.6%
same,residual activity,[19],96.3%
same,residual activity,[20],92.9%
same,residual activity,[21],107%
same,residual activity,[22],75.8%
same,residual activity,[23],109%
same,residual activity,[24],89.5%
same,residual activity,[25],70.5%
same,residual activity,[26],103%
same,residual activity,[27],83.7%
same,residual activity,[28],115%
same,residual activity,[29],86.5%
same,residual activity,[30],102%
same,residual activity,[31],105%
same,residual activity,[32],99.7%
same,residual activity,[33],95.9%
same,residual activity,[34],92.5%
same,residual activity,[35],88.7%
same,residual activity,[36],105%
same,residual activity,[37],87%
same,residual activity,[38],119%
same,residual activity,[39],85%
same,residual activity,[40],102%
same,residual activity,[41],58.7%
same,residual activity,[42],98.6%
COc1ccc(C(=O)Nc2sc3c(c2C(N)=O)CCCC3)cc1OC,residual activity,[1],92%
same,residual activity,[2],95.5%
same,residual activity,[3],110%
same,residual activity,[4],101%
same,residual activity,[5],86.5%
same,residual activity,[6],103%
same,residual activity,[7],84.3%
same,residual activity,[8],86.4%
same,residual activity,[9],94.9%
same,residual activity,[10],105%
same,residual activity,[11],94.3%
same,residual activity,[12],95.1%
same,residual activity,[13],87.4%
same,residual activity,[14],102%
same,residual activity,[15],89.8%
same,residual activity,[16],97%
same,residual activity,[17],99.4%
same,residual activity,[18],95.7%
same,residual activity,[19],96.4%
same,residual activity,[20],99.6%
same,residual activity,[21],99%
same,residual activity,[22],96.6%
same,residual activity,[23],107%
same,residual activity,[24],100%
same,residual activity,[25],101%
same,residual activity,[26],100%
same,residual activity,[27],94%
same,residual activity,[28],95.4%
same,residual activity,[29],88.8%
same,residual activity,[30],102%
same,residual activity,[31],88%
same,residual activity,[32],101%
same,residual activity,[33],90.9%
same,residual activity,[34],94.5%
same,residual activity,[35],99.1%
same,residual activity,[36],125%
same,residual activity,[37],99.6%
same,residual activity,[38],103%
same,residual activity,[39],93.8%
same,residual activity,[40],87.6%
same,residual activity,[41],106%
same,residual activity,[42],98.1%
